# Measurements reported in patent EP4599827A1, “DGL FOR THE INDUCTION OF ENDOTHELIAL-DERIVED NO-DEPENDENT VASODILATION” (Dr. Kurt Wolff GmbH & Co. KG, priority 2024, dated 2025).
# Tests used:
# Format in all cases: cell-based, human
# [1] = tested on: eNOS; assay: Immunocytochemistry of eNOS expression in HDMECs; conditions: semiquantitative immunocytochemistry, 24 h treatment, DMG-Na 0,005%, 0,02% and 0,05%
# From the text: (§1) Adulte humane mikrovaskuläre Endothelzellen der Haut (HDMECs) wurden 2023 von Lonza Ltd (Basel, Schweiz) erworben und kultiviert in EBM™-2 Endothelial Cell Growth Basal Medium, ergänzt mit EGM™-2 MV Microvascular Endothelial SingleQuots™ Kit (beide von Lonza Ltd, Basel, Schweiz), enthaltend humanen epidermalen Wachstumsfaktor, vaskulären Endothelial Growth Factor, R^3-Insulin-like Growth Factor-1, Ascorbinsäure, Hydrocortison, humanen Fibroblasten-Wachstumsfaktor-Beta, fötales Rinderserum und Gentamicin/Amphotericin-B und gemäß den Richtlinien des Herstellers kultiviert. Die HDMECs wurden von 2 verschiedenen weiblichen Spendern initiiert und es wurden die Passagen 4 bis 8 wurden für die Experimente verwendet.
# HDMECs (5.000 Zellen pro 10 mm runde Glasdeckgläser), die mit DMG-Na (0,005%, 0,02% und 0,05%) behandelt wurden, wurden in 1% Paraformaldehyd (PFA, Merck KGaA, Darmstadt) für 10 Minuten bei Raumtemperatur fixiert und nach einem Waschschritt mit phosphatgepufferter Kochsalzlösung (PBS, Merck KGaA) für 5 Minuten mit -20 °C kalter Ethanol-Essigsäure (2:1) nachfixiert. […]
# [2] = tested on: HDMECs; assay: Microfluorimetric measurement of NO (DAF-FM DA) in HDMECs; conditions: DAF-FM-DA microfluorimetry, increase vs control
# From the text: as §1
# HDMECs wurden mit einer Dichte von 15.000 Zellen pro Well in einer schwarzen 96-WellPlatte mit klarem Boden (Greiner Bio-One, Kremsmünster, Österreich) ausgesät und in Wachstumsmedium bei 37 °C für 24 Stunden kultiviert. Anschließend wurden die Zellen mit 5 µM DAF-FM DA (4-Amino-5-methylamin-2',7'-difluororesceindiacetat) in phenolrotfreiem DMEM (beides von Thermo Fisher Scientific, Waltham, MA), ergänzt mit 0,5% FBS (Serana Europe GmbH, Brandenburg, Deutschland) für 1 Stunde bei 37 °C inkubiert. […]
# [3] = tested on: eNOS; assay: Western blot of eNOS protein content in HDMECs
# From the text: as §1
# HDMECs wurden in 6-Well-Platten ausgesät und für 24 Stunden mit DMG-Na (0,005% und 0,05%) behandelt. Nach der Behandlung wurden die Zellen in Lysispuffer (30 mM TRIS, pH 7,6, 140 mM NaCl, 5 mM EDTA, 50 mM NaF, 1 mM Na3VO4), der mit Proteaseinhibitoren ergänzt wurde, geerntet. Nach kräftigem Vortexen und Zentrifugieren wurde der Proteingehalt der Proben unter Verwendung des Pierce BCA Protein Assay Kits (Thermo Fisher Scientific, Waltham, MA) bestimmt. Gleiche Mengen an Proteinproben wurden einer 7,5%-igen SDS-PAGE unterzogen und auf Nitrocellulose-Membranen (Bio-Rad Laboratories, Hercules, CA) übertragen. […]
compound,measurement,setting,value
"CN(C)CC(=O)O [DMG-Na, N,N-Dimethylglycin-Natriumsalz]",Expression von eNOS,[1],Expression von eNOS nach 24-stündiger Behandlung zu erhöhen
same,zelluläre NO-Produktion,"[2]; 0.02%, p=0,0002",statistisch signifikant
same,zelluläre NO-Produktion,"[2]; 0.05%, p=0,0001",statistisch signifikant
same,Proteingehalt von eNOS,"[3]; 24 h, 0,05% DMG-Na, increase vs control, p=0,0189",statistisch signifikant
same,Proteingehalt von eNOS,"[3]; 24 h, DMG-Na 0,005% and 0,05%, vs control",dosisabhängig
